A word on the inhibition: it is the percentage by which the read-out fell short of the control. Read a high inhibition as a response far below the control. In general, half-life refers to the time needed for the level to fall by half in the phase considered. Broadly, the pIC50 is the IC50 on a negative log10 scale, so that one unit is a factor of ten. A lower pIC50 goes with a high IC50.

29 molecules from ChEMBL document CHEMBL1140743, “2-Oxotetrahydroquinoline-based antimalarials with high potency and metabolic stability” (J Med Chem, 2008) can be followed below.

Data set [1] has as its system Plasmodium falciparum. Kind of data set: Displacement of [3H]farnesylpyrophosphate from Plasmodium falciparum protein farnesyltransferase at 50 nM by scintillation proximity assay.
For data set [2], the system named is Plasmodium falciparum. Kind of data set: Antimalarial activity against chloroquine-sensitive Plasmodium falciparum 3D7 in human red cells. The settings on record: read-out: ED50 (the source's name). Format: functional.
In data set [3] the test system is Plasmodium falciparum. Kind of data set: Displacement of [3H]farnesylpyrophosphate from Plasmodium falciparum protein farnesyltransferase at 0.5 nM by scintillation proximity assay. Background: Loss of bound radioactivity is the signal in a displacement assay; it reports binding, not function.
Data set [4] deals with Plasmodium falciparum. Briefly: Displacement of [3H]farnesylpyrophosphate from Plasmodium falciparum protein farnesyltransferase at 5 nM by scintillation proximity assay.
The subject of data set [5] is Plasmodium falciparum. Briefly: Antimalarial activity against chloroquine-resistant, pyrimethamine-resistant Plasmodium falciparum K1 in human red cells. Format: functional. The following applies: read-out: ED50 (the source's name).
The nature of data set [6]: (§1) Metabolic stability assessed as half life in mouse liver microsomes. Format: ADME, Microsome. The following applies: liver microsomes. (Microsomes from liver hold many membrane-bound enzymes, among them those of drug oxidation.)
The species entered for data set [7] is Rattus norvegicus. Briefly: Inhibition of rat protein farnesyltransferase at 500 nM.
Data set [8] is filed under the species Rattus norvegicus. Kind of data set: Inhibition of rat protein farnesyltransferase at 5000 nM.
The species named for data set [9] is Rattus norvegicus. Kind of data set: Inhibition of rat protein farnesyltransferase at 5 nM.
Data set [10] is filed under the species Rattus norvegicus. Briefly: Inhibition of rat protein farnesyltransferase at 50 nM.
A further data set concerns Liver. The data set is described as §1. Format: ADME, Microsome. The settings on record: microsomes.
Data set [11] can be described thus: Inhibition of Plasmodium falciparum PFT.
Data set [12] concerns Plasmodium falciparum. Kind of data set: Antimalarial activity against Plasmodium falciparum in human red cells. Format: functional. The settings on record: read-out: ED50 (the source's name).

pEC50, pIC50: −log10 of the molar value.

With `COC(=O)C1CCC(CN(C2Cc3cc(C#N)ccc3N(Cc3cncn3C)C2=O)S(=O)(=O)c2cn(C)cn2)CC1` (configuration not stated), the inhibition turned out to be 98% with Plasmodium falciparum [1], 21% in the data set on Plasmodium falciparum [3] and 83% with Plasmodium falciparum [4]. For the same molecule, the pEC50 in the data set on Plasmodium falciparum [2] was 6.98.
For the molecule `Cn1cnc(S(=O)(=O)N(Cc2ccc(C#N)cc2)C2Cc3cc(C#N)ccc3N(Cc3cncn3C)C2=O)c1` (configuration not stated), the inhibition in the data set on Plasmodium falciparum [1] was 91%; in the data set on Plasmodium falciparum [3] it was 26%; with Plasmodium falciparum [4] it was 56%. For the same molecule, the pEC50 in the data set on Plasmodium falciparum [2] and in the data set with Plasmodium falciparum [5] was 5.68 each time. For the same molecule, the half-life in data set [6] was 40 min.
Regarding `Cc1ccccc1CN(C1Cc2cc(C#N)ccc2N(Cc2cncn2C)C1=O)S(=O)(=O)c1cn(C)cn1` (configuration not stated), the inhibition with Plasmodium falciparum [1] amounted to 45%; in the data set on Plasmodium falciparum [3], 9%; in the data set with Plasmodium falciparum [4], 12%. The pEC50 with Plasmodium falciparum [2] and in the data set on Plasmodium falciparum [5] was 5.30 in each case.
As for `Cn1cnc(S(=O)(=O)N(CC(=O)NC(C)(C)C)C2Cc3cc(C#N)ccc3N(Cc3cncn3C)C2=O)c1` (configuration not stated), the inhibition in the data set on Plasmodium falciparum [1] is 98%; in the data set listed under Rattus norvegicus [7], 62%; in the data set listed under Rattus norvegicus [8] it was 86%; in the data set with Plasmodium falciparum [3] it was 25%; in the data set listed under Rattus norvegicus [9], 0%; in the data set listed under Rattus norvegicus [10], 0%. The inhibition in the data set with Plasmodium falciparum [4] came to 86%. The pEC50 is 6.70 in the data set on Plasmodium falciparum [2] and 7.00 with Plasmodium falciparum [5]. Besides, the half-life in data set [6] is 144 min.
On to `Cn1cncc1CN1C(=O)C(NS(=O)(=O)c2ccccn2)Cc2cc(Br)ccc21` (configuration not stated), for which the inhibition with Plasmodium falciparum [1] turned out to be 36%; with Plasmodium falciparum [3], 0%; in the data set on Plasmodium falciparum [4], 15%. Further, the pEC50 in the data set on Plasmodium falciparum [2] and with Plasmodium falciparum [5] was 5.30 throughout.
Turning to `Cn1cncc1CN1C(=O)C(N(Cc2ccc(S(C)(=O)=O)cc2)S(=O)(=O)c2ccccn2)Cc2cc(C#N)ccc21` (configuration not stated), the figures for the inhibition in the data set with Plasmodium falciparum [1], with Plasmodium falciparum [3] and with Plasmodium falciparum [4] were 91%, 15% and 60%, respectively. The figures for the pEC50 in the data set on Plasmodium falciparum [2] and in the data set on Plasmodium falciparum [5] were 5.77 and 6.56, respectively.
Turning to `Cn1cnc(S(=O)(=O)NC2Cc3cc(C#N)ccc3N(Cc3cncn3C)C2=O)c1` (configuration not stated), the inhibition was found to be 79% in the data set with Plasmodium falciparum [1], 0% in the data set on Plasmodium falciparum [3] and 41% in the data set on Plasmodium falciparum [4].
Regarding `Cn1cnc(S(=O)(=O)N(Cc2ccc(S(C)(=O)=O)cc2)C2Cc3cc(C#N)ccc3N(Cc3cncn3C)C2)c1` (configuration not stated), the t1/2 with Liver stood at 16 min.
As for `Cn1cnc(S(=O)(=O)NC2Cc3cc(Br)ccc3N(Cc3cncn3C)C2=O)c1` (configuration not stated), the inhibition in the data set with Plasmodium falciparum [1] was 60%; in the data set on Plasmodium falciparum [3] it was 5%; in the data set on Plasmodium falciparum [4], 15%. Moreover, the pEC50 in the data set with Plasmodium falciparum [2] is 5.30; in the data set on Plasmodium falciparum [5], 5.52.
On to `Cn1cnc(S(=O)(=O)N(Cc2ccc(S(C)(=O)=O)cc2)C2Cc3cc(C#N)ccc3N(Cc3cncn3C)C2=O)c1` (configuration not stated), for which the inhibition was 99% in the data set with Plasmodium falciparum [1]; 23% in the data set filed under Rattus norvegicus [7]; 73% in the data set filed under Rattus norvegicus [8]; 23% in the data set with Plasmodium falciparum [3]; 0% in the data set filed under Rattus norvegicus [9]; 0% in the data set filed under Rattus norvegicus [10]. This molecule came in with an inhibition in the data set on Plasmodium falciparum [4] of 91%. Moreover, the pEC50 with Plasmodium falciparum [2] was 7.10. The half-life in data set [6] is 133 min.
For `Cn1cnc(S(=O)(=O)N(Cc2ccccc2F)C2Cc3cc(C#N)ccc3N(Cc3cncn3C)C2=O)c1` (configuration not stated), the results for the inhibition in the data set on Plasmodium falciparum [1], with Plasmodium falciparum [3] and with Plasmodium falciparum [4] were 97%, 33% and 71%, respectively. Besides, the pEC50 in the data set on Plasmodium falciparum [2] is 6.10.
On to `Cn1cnc(S(=O)(=O)N(Cc2ccccn2)C2Cc3cc(C#N)ccc3N(Cc3cncn3C)C2=O)c1` (configuration not stated), for which the inhibition with Plasmodium falciparum [1] stood at 8%; in the data set with Plasmodium falciparum [3], 0%; in the data set on Plasmodium falciparum [4] it was 5%. Also, the pEC50 in the data set with Plasmodium falciparum [2] is 5.30.
Turning to `Cn1cnc(S(=O)(=O)N(Cc2ccc(C#N)cc2)C2Cc3cc(C#N)ccc3N(Cc3cncn3C)C2)c1` (configuration not stated), the half-life in data set [6] was 3 min.
Consider `Cn1cnc(S(=O)(=O)N(C(CC(=O)OC(C)(C)C)C(=O)OC(C)(C)C)C2Cc3cc(C#N)ccc3N(Cc3cncn3C)C2=O)c1` (configuration not stated), for which the inhibition in the data set on Plasmodium falciparum [1], with Plasmodium falciparum [3] and in the data set on Plasmodium falciparum [4] was 0% throughout. Also, the pEC50 in the data set on Plasmodium falciparum [2] and in the data set with Plasmodium falciparum [5] was 5.30 in each case.
With `Cn1cnc(S(=O)(=O)N(CC(=O)OC(C)(C)C)C2Cc3cc(C#N)ccc3N(Cc3cncn3C)C2)c1` (configuration not stated), in [6], the half-life was 10 min.
With `Cn1cnc(S(=O)(=O)N(Cc2ccc(S(C)(=O)=O)cc2)C2Cc3cc(Br)ccc3N(Cc3cncn3C)C2=O)c1` (configuration not stated), the inhibition worked out at 86% in the data set with Plasmodium falciparum [1]; 0% in the data set listed under Rattus norvegicus [7]; 56% in the data set filed under Rattus norvegicus [8]; 0% in the data set with Plasmodium falciparum [3]; 0% in the data set filed under Rattus norvegicus [9]; 0% in the data set listed under Rattus norvegicus [10]. In the data set on Plasmodium falciparum [4], this molecule came in with an inhibition of 26%. Further, the pEC50 in the data set with Plasmodium falciparum [2] was 6.07.
Regarding `Cn1cnc(S(=O)(=O)N(Cc2ccc(F)cc2F)C2Cc3cc(C#N)ccc3N(Cc3cncn3C)C2=O)c1` (configuration not stated), the results for the inhibition with Plasmodium falciparum [1], with Plasmodium falciparum [3] and with Plasmodium falciparum [4] were 80%, 4% and 27%, respectively.
Take `Cn1cncc1CN1C(=O)C(N(CC(=O)NC(C)(C)C)S(=O)(=O)c2ccc3c(c2)OCCCO3)Cc2cc(C#N)ccc21` (configuration not stated): the inhibition with Plasmodium falciparum [1] turned out to be 22%; with Plasmodium falciparum [3] it was 0%; with Plasmodium falciparum [4], 4%. The pEC50 with Plasmodium falciparum [2] was 5.30.
For the molecule `Cn1cnc(S(=O)(=O)N(Cc2ccc(-n3cccn3)cc2)C2Cc3cc(C#N)ccc3N(Cc3cncn3C)C2=O)c1` (configuration not stated), the inhibition in the data set on Plasmodium falciparum [1] was 100%; in the data set filed under Rattus norvegicus [7], 54%; in the data set filed under Rattus norvegicus [8] it was 84%; with Plasmodium falciparum [3], 50%; in the data set listed under Rattus norvegicus [9], 0%; in the data set listed under Rattus norvegicus [10], 4%. Further, the inhibition in the data set with Plasmodium falciparum [4] came out at 97%. Also, the pEC50 in the data set on Plasmodium falciparum [2] was 7.10; with Plasmodium falciparum [5] it was 6.82. For the same molecule, the half-life in data set [6] was 9 min.
For `Cn1cnc(S(=O)(=O)N(Cc2ccccc2)C2Cc3cc(C#N)ccc3N(Cc3cncn3C)C2=O)c1` (configuration not stated), the inhibition in the data set with Plasmodium falciparum [1] is 98%; in the data set listed under Rattus norvegicus [7], 5%; in the data set filed under Rattus norvegicus [8] it was 61%; with Plasmodium falciparum [3] it was 45%; in the data set listed under Rattus norvegicus [9] it was 0%; in the data set listed under Rattus norvegicus [10], 0%. The same molecule showed an inhibition with Plasmodium falciparum [4] of 88%. Moreover, the pEC50 was 6.76 in the data set with Plasmodium falciparum [2] and 7.00 in the data set with Plasmodium falciparum [5].
For the molecule `Cc1c(S(=O)(=O)N(CC(=O)NC(C)(C)C)C2Cc3cc(C#N)ccc3N(Cc3cncn3C)C2=O)ncn1C` (configuration not stated), the inhibition in the data set on Plasmodium falciparum [1] is 24%; in the data set on Plasmodium falciparum [3], 6%; with Plasmodium falciparum [4] it was 11%. Moreover, the pEC50 with Plasmodium falciparum [2] and in the data set with Plasmodium falciparum [5] was 5.30 each time.
For the molecule `COC(=O)N1CCC(CN(C2Cc3cc(C#N)ccc3N(Cc3cncn3C)C2)S(=O)(=O)c2ccccn2)CC1` (configuration not stated), the pIC50 in data set [11] was 9.30. Moreover, the pEC50 in the data set on Plasmodium falciparum [12] was 7.82.
Consider `Cn1cnc(S(=O)(=O)N(CC(=O)NC(C)(C)C)C2Cc3cc(Br)ccc3N(Cc3cncn3C)C2=O)c1` (configuration not stated), for which the inhibition with Plasmodium falciparum [1] was 98%; with Plasmodium falciparum [3], 24%; with Plasmodium falciparum [4] it was 81%. Besides, the pEC50 in the data set on Plasmodium falciparum [2] was 6.98.
Turning to `Cn1cnc(S(=O)(=O)N(CC(=O)OC(C)(C)C)C2Cc3cc(C#N)ccc3N(Cc3cncn3C)C2=O)c1` (configuration not stated), the inhibition in the data set on Plasmodium falciparum [1] stood at 100%; in the data set filed under Rattus norvegicus [7], 75%; in the data set listed under Rattus norvegicus [8] it was 92%; with Plasmodium falciparum [3], 62%; in the data set listed under Rattus norvegicus [9], 0%; in the data set filed under Rattus norvegicus [10] it was 23%. Besides, the inhibition in the data set on Plasmodium falciparum [4] is 97%. Besides, the values for the pEC50 in the data set on Plasmodium falciparum [2] and in the data set with Plasmodium falciparum [5] were 7.46 and 7.52, respectively. Besides, the half-life in data set [6] came out at 21 min.
Consider `Cn1cnc(S(=O)(=O)N(CC(=O)c2ccsc2)C2Cc3cc(C#N)ccc3N(Cc3cncn3C)C2=O)c1` (configuration not stated), for which the inhibition stood at 98% with Plasmodium falciparum [1], 26% with Plasmodium falciparum [3] and 79% in the data set with Plasmodium falciparum [4].
For the molecule `Cn1cnc(S(=O)(=O)N(CC(=O)NC(C)(C)C)C2Cc3cc(C#N)ccc3N(Cc3cncn3C)C2)c1` (configuration not stated), in data set [6], the half-life was 17 min.
Take `Cn1cncc1CN1C(=O)C(N(CC(=O)NC(C)(C)C)S(=O)(=O)c2cccc(F)c2)Cc2cc(C#N)ccc21` (configuration not stated): the figures for the inhibition with Plasmodium falciparum [1], in the data set with Plasmodium falciparum [3] and with Plasmodium falciparum [4] were 56%, 0% and 19%, respectively. Further, the pEC50 in the data set on Plasmodium falciparum [2] was 5.44. For the same molecule, in [6], the half-life worked out at 31 min.
Regarding `Cn1cnc(S(=O)(=O)N(Cc2ccc(C(F)(F)F)o2)C2Cc3cc(C#N)ccc3N(Cc3cncn3C)C2=O)c1` (configuration not stated), the inhibition in the data set with Plasmodium falciparum [1] was 92%; with Plasmodium falciparum [3] it was 1%; in the data set on Plasmodium falciparum [4], 67%. Also, the pEC50 in the data set with Plasmodium falciparum [2] was 6.20; in the data set with Plasmodium falciparum [5], 6.49.
For `C=C(C)CN(C1Cc2cc(C#N)ccc2N(Cc2cncn2C)C1=O)S(=O)(=O)c1cn(C)cn1` (configuration not stated) the same measures were 86%, 4%, 41%, 5.49 and 5.70.
